Reference: patent publication US20090209617A1, “DULOXETINE SALTS” (priority 2006, published 2009)
Counter-ions that a name gives are not always drawn.

Tests used:
[1] = HPLC assay of the impurity of the Formula (II) in the duloxetine salt obtained; format: physicochemical; settings: rearrangement product of duloxetine, salt as obtained, limit of detection 0.01 percent by weight
Protocol: The limit of detection for the compound of the Formula (II) is a feature of the high-performance liquid chromatographic method used for the assay thereof. Using the chromatographic method disclosed in the present application, said limit of detection is 0.01 percent by weight.
The analysis is carried out using ultraviolet absorption detector under the following chromatographic conditions:
Column, Chiral OD-R, 250*4,6 mm, 10 μm particle size • Flow rate, 1.0 ml/minute • Injection volume, 10 μl • Column temperature, 40° C. • Temperature of sample compartment, 20° C. • Detection wavelength, 220 nm • Mobile phase A: solution of 40 g of sodium hydroxide and 85 ml of concentrated perchloric acid are dissolved in 200 ml of distilled water, pH 2.1 • B: acetonitrile • Eluent composition, isocratic, 55 percent by volume mobile phase A • Analysis time, 30 minutes • Sample concentration, 10 mg/10 ml • Sample solvent, water-acetonitrile 80:20 volume/volume • Needle wash, water-acetonitrile […] volume/volume • Selectivity factor, >4 • Number of theoretical plates, min. 10000 • Asymmetry factor, <2
The assay is carried out according to the requirements of the pharmacopoeia regarding the determination of the impurities.
(§1) A sample containing approximately 100 mg of duloxetine is thoroughly homogenized in a mortar, weighed with analytical precision and transferred into a suitable volumetric flask. 80 ml of 80:20 volume by volume mixture of water and acetonitrile are added to the sample and the suspension is shaked in an ultrasonic bath for 10 minutes at the temperature of 25° C. The suspension is filtered and completed to 100 ml with the extraction solvent.

[2] = Stability testing of duloxetine-containing medicinal products (HPLC, mass spectrometry); format: physicochemical; settings: during manufacture of the salt and during shelf-life of the medicinal products prepared from it
Protocol: During the process of stability testing, the identity and concentration of individual impurities present in the medicinal product are determined as the function of time and storage conditions. In the aforementioned tests, generally high-performance liquid chromatography and mass spectrometry are used as analytical methods.
In order to identify the above mentioned impurities, each of them has been separated by high-performance liquid chromatography and their molecular weight was determined by mass spectrometry.
Subsequently, the compound of the Formula (II) has been prepared by the rearrangement of duloxetine hydrobromide in pure form and in good yield and the thus obtained product was subjected to structure elucidation. The identity of the thus obtained (±)-N-methyl-3-(2-thienyl)-3-(4-hydroxy-1-naphtyl)-propylamine of the Formula (II) with the impurity observed during the stability testing has been established using high-performance liquid chromatography and mass spectrometry.
The following sample preparation method has been used during the stability testing of duloxetine-containing medicinals products and assay of duloxetine active ingredients.
as §1, with “solvent. A 10-μl portion of the thus obtained solution is analyzed by the high-performance liquid chromatographic method of Example 9.” for “solvent.”

[3] = preparation of salts with strong mineral acids, especially hydrobromic acid; 25 to 50° C.

melting point [°C] | Compound | amount of the impurity of the Formula (II) in the product [1] | formation of (±)-N-methyl-3-(2-thienyl)-3-(4-hydroxy-1-naphtyl)-propylamine of the Formula (II) [2] | time in which the compound of the Formula (II) forms [3]
190 to 196 | CNCCC(c1cccs1)c1ccc(O)c2ccccc12 (racemic) | – | – | –
– | CNCCC(Oc1cccc2ccccc12)c1cccs1.O=C(O)C(O)c1ccccc1 (stereo not drawn) [Example 3, (+)-N-methyl-3-(1-naphtyloxy)-3-(2-thienyl)-propylamine(−)-mandelate (1:1)] | less than 0.01 percent by weight | can be detected neither during the manufacture of the above-mentioned particularly preferable salts, nor during the shelf-life | –
– | CNCC[C@H](Oc1cccc2ccccc12)c1cccs1 [Example 6, (+)-N-methyl-3-(1-naphtyloxy)-3-(2-thienyl)-propylamine hydrochloride (1:1), reference compound] | approximately 0.05 percent by weight | – | –
– | CNCC[C@H](Oc1cccc2ccccc12)c1cccs1 [duloxetine, (+)-(S)—N-methyl-3-(1-naphtyloxy)-3-(2-thienyl)-propylamine] | – | – | a few minutes
– | (+)-N-methyl-3-(1-naphtyloxy)-3-(2-thienyl)-propylamine citrate (1:1) [Example 1] | less than 0.01 percent by weight | can be detected neither during the manufacture of the above-mentioned particularly preferable salts, nor during the shelf-life | –
– | (+)-N-methyl-3-(1-naphtyloxy)-3-(2-thienyl)-propylamine fumarate (1:1) [Example 2] | less than 0.01 percent by weight | can be detected neither during the manufacture of the above-mentioned particularly preferable salts, nor during the shelf-life | –
